Laboratory results taken from patent US20160101188A1, “NOVEL NANOCARRIER DELIVERED CANCER CHEMOTHERAPEUTIC AGENTS” (UNIVERSITY OF CINCINNATI, priority 2013, published 2016).

These molecules were tested on MCF7 (breast cancer) cells (assay: MTT cytotoxicity assay in MCF7 breast cancer cells). Conditions: 65 hours incubation, read-out: IC50, viability of MCF7 cells from the MTT assay.
Format: cell-based
Procedure: The cyctoxicity of compounds was determined in MCF 7 (breast cancer) cells.
MCF7 cells were grown in RPMI 1640 media with 10 nM estrogen and 1 mM insulin. Cells were tyripsinized and resuspended at a density of 2.2×10^4 cells per mL. 500 μL of this suspension was added to each well in a 24 well plate. The plates were incubated at 37° C. and 5% CO2 atmosphere overnight. The media was changed, and plates were dosed in triplicate with compound dissolved in DMSO. Cells were dosed not to exceed 0.5% DMSO in solution. Cells were dosed to a final concentration of 100, 50, 25, 12.5, and 6.25 μM of compound. 5-Flurouracil was used as a positive control and dosed in the same manner. Plates were incubated for 65 hours prior to the addition of MTT solution. 500 μL of a 193 μg/mL MTT and media solution was added to each well. Plates were incubated for 3 hours. The MTT solution was removed and 500 μL of DMSO was added to each well. Cells were imaged using GS 800 Bio Rad scanner and Quality One Software. IC50 curves were determined by plotting viability verses compound concentration. Kaleidagraph software was used to calculate the R value for each logarithmic curve fitting.

Row | SMILES | IC50 [µM]
1 | CC(C)(C)C(OCc1c[nH]c(=O)[nH]c1=O)c1ccccc1 (stereo not drawn) [KB-1-23, 5-[1-phenyl-2,2-(dimethyl)propoxymethyl]uracil] | 59
2 | COc1ccc(C(OCc2cn([C@H]3C[C@H](O)[C@@H](CO)O3)c(=O)[nH]c2=O)C(C)(C)C)cc1 (stereo partly drawn) [KB-1-55, 5-[1-(4-methoxyphenyl)-2,2-(dimethyl)propoxymethyl]-2′-deoxyuridine] | 183
3 | O=c1[nH]c(=O)n([C@H]2C[C@H](O)[C@@H](CO)O2)cc1COC(c1ccccc1)c1ccccc1[N+](=O)[O-] (stereo partly drawn) [KB-1-85, 5-[{(2-nitrophenyl)phenyl}methoxymethyl]-2′-deoxyundine] | 50
4 | CC(C)(C)CC(OCc1cn([C@H]2C[C@H](O)[C@@H](CO)O2)c(=O)[nH]c1=O)c1ccccc1[N+](=O)[O-] (stereo partly drawn) [KB-1-91, 5-[1-(2-nitrophenyl)-3,3-(dimethyl)butoxymethyl]-2′-deoxyuridine] | 62
5 | Cc1ccccc1C(OCc1cn([C@H]2C[C@H](O)[C@@H](CO)O2)c(=O)[nH]c1=O)C(C)(C)C (stereo partly drawn) [KB-1-100, 5-[1-(2-methyl)phenyl-2,2-(dimethyl)propoxymethyl]-2′-deoxyuridine] | 121
6 | CC(C)(C)C(OCc1cn([C@H]2C[C@H](O)[C@@H](CO)O2)c(=O)[nH]c1=O)c1ccccc1CBr (stereo partly drawn) [KB-1-135, 5-[1-(2-bromomethyl)phenyl-2,2-(dimethyl)propoxymethyl]-2′-deoxyuridine] | 72
7 | CC(C)(C)C(OCc1cn([C@H]2C[C@H](O)[C@@H](CO)O2)c(=O)[nH]c1=O)c1ccc(I)cc1[N+](=O)[O-] (stereo partly drawn) [MPB-1-33, 5-[1-(4-iodo-2-nitrophenyl)-2,2-(dimethyl)propoxymethyl]-2′-deoxyuridine] | 56 ± 6
8 | COc1ccccc1C(OCc1cn([C@H]2C[C@H](O)[C@@H](CO)O2)c(=O)[nH]c1=O)C(C)(C)C (stereo partly drawn) [MPB-1-36, 5-[1-(2-methoxyphenyl)-2,2-(dimethyl)propoxymethyl]-2′-deoxyuridine] | 94
9 | CC(C)(C)C(OCc1cn([C@H]2C[C@H](O)[C@@H](CO)O2)c(=O)[nH]c1=O)c1ccc(C#CCOc2ccc3ccc(=O)oc3c2)cc1[N+](=O)[O-] (stereo partly drawn) [MPB-1-41, 5-[1-(4-{3-(7-coumarin)oxy}proyn-1-yl-2-nitrophenyl)-2,2-(dimethyl)propoxymethyl]-2′-deoxyuridine] | 16 ± 3
10 | CC(C)(C)C(OCc1cn([C@H]2C[C@H](O)[C@@H](CO)O2)c(=O)[nH]c1=O)c1ccccc1Cl (stereo partly drawn) [MPB-1-49, 5-[1-(2-chlorophenyl)-2,2-(dimethyl)propoxymethyl]-2′-deoxyundine] | 80
11 | CC(C)(C)C(OCc1cn([C@H]2C[C@H](O)[C@@H](CO)O2)c(=O)[nH]c1=O)c1c([N+](=O)[O-])cccc1[N+](=O)[O-] (stereo partly drawn) [MPB-1-55, 5-[1-(2,6-dinitrophenyl)-2,2-(dimethyl)propoxymethyl]-2′-deoxyuridine] | 96
12 | CC(C)(C)C(OCc1cn([C@H]2C[C@H](O)[C@@H](CO)O2)c(=O)[nH]c1=O)c1c(Cl)cccc1Cl (stereo partly drawn) [MPB-1-57, 5-[1-(2,6-dichlorophenyl)-2,2-(dimethyl)propoxymethyl]-2′-deoxyuridine] | 60
13 | O=c1[nH]c(=O)n([C@H]2C[C@H](O)[C@@H](CO)O2)cc1COC(c1ccccc1)C1CCCCC1 (stereo partly drawn) [PRW-1-13, 5-[1-(phenyl)-1-(cyclohexyl)methoxymethyl]-2′-deoxyundine] | 93
14 | O=c1[nH]c(=O)n([C@H]2C[C@H](O)[C@@H](CO)O2)cc1COC(c1ccccc1[N+](=O)[O-])C1CCCCC1 (stereo partly drawn) [PRW-1-18, 5-[1-(2-nitro)phenyl-1-(cyclohexyl)methoxymethyl]-2′-deoxyuridine] | 63
15 | CC(C)(C)CC(OCc1c[nH]c(=O)[nH]c1=O)c1ccccc1 (stereo not drawn) [SL-1-7, 5-[1-phenyl-3,3-(dimethyl)butoxymethyl]uracil] | 37
16 | COc1cccc(C(OCc2cn([C@H]3C[C@H](O)[C@@H](CO)O3)c(=O)[nH]c2=O)C(C)(C)C)c1 (stereo partly drawn) [SS-1-11, 5-[1-(3-methoxyphenyl)-2,2-(dimethyl)propoxymethyl]-2′-deoxyundine] | 66
17 | O=c1[nH]c(=O)n([C@H]2C[C@H](O)[C@@H](CO)O2)cc1COC(c1ccccc1)c1c([N+](=O)[O-])cccc1[N+](=O)[O-] (stereo partly drawn) [TZ-1-13F3, 5-[{(2,6-dinitrophenyl)phenyl}methoxymethyl]-2′-deoxyuridine] | 44
18 | CC(OCc1cn([C@H]2C[C@H](O)[C@@H](CO)O2)c(=O)[nH]c1=O)c1ccccc1[N+](=O)[O-] (stereo partly drawn) [VAL-1-26, 5-[1-(2-nitrophenyl)ethoxymethyl]-2′-deoxyuridine] | ~150
19 | CC(C)(C)C(OCc1cn([C@H]2C[C@H](O)[C@@H](CO)O2)c(=O)[nH]c1=O)c1ccccc1C#N (stereo partly drawn) [VAL-1-28, 5-[1-(2-cyanophenyl)-2,2-(dimethyl)propoxymethyl]-2′-deoxyuridine] | 106
20 | COCC#Cc1ccc(C(OCc2cn([C@H]3C[C@H](O)[C@@H](CO)O3)c(=O)[nH]c2=O)C(C)(C)C)c([N+](=O)[O-])c1 (stereo partly drawn) [VAL-1-48, 5-[1-(4-{3-methoxy}proyn-1yl-2-nitrophenyl)-2,2-(dimethyl)-1-propoxymethyl]-2′-deoxyuridine] | 74 ± 7
21 | CC(C)(C)C(OCc1cn([C@H]2C[C@H](O)[C@@H](CO)O2)c(=O)[nH]c1=O)c1ccc(C#C[Si](C)(C)C)cc1[N+](=O)[O-] (stereo partly drawn) [VAL-1-49, 5-[1-(4-{trimethylsilyl}acetylenyl-2-nitrophenyl)-2,2-(dimethyl)-1-propoxymethyl]-2′-deoxyuridine] | 29 ± 3
22 | C#Cc1ccc(C(OCc2cn([C@H]3C[C@H](O)[C@@H](CO)O3)c(=O)[nH]c2=O)C(C)(C)C)c([N+](=O)[O-])c1 (stereo partly drawn) [VAL-1-50, 5-[1-(4-acetylenyl-2-nitrophenyl)-2,2-(dimethyl)propoxymethyl]-2′-deoxyuridine] | 89 ± 14

Same assay, conditions: Homo sapiens, MCF7, 65 h, 65 hours incubation, read-out: IC50, viability of MCF7 cells from the MTT assay

Row | SMILES | IC50 [µM]
23 | CC(C)C(OCc1c[nH]c(=O)[nH]c1=O)c1ccccc1 (stereo not drawn) [KB-1-1, 5-[1-phenyl-2-(methyl)propoxymethyl]uracil] | > 200
24 | O=c1[nH]c(=O)n([C@H]2C[C@H](O)[C@@H](CO)O2)cc1COC(c1ccccc1)c1ccccc1 [KB-1-10, 5-[(diphenyl)methoxymethyl]-2′-deoxyuridine] | 160
25 | CC(C)COC(c1ccccc1)c1cn([C@H]2C[C@H](O)[C@@H](CO)O2)c(=O)[nH]c1=O (stereo partly drawn) [MPB-1-25, 5-[1-(phenyl)-2-(methyl)-1-propoxymethyl]-2′-deoxyuridine] | > 150
26 | CC(OCc1cn([C@H]2C[C@H](O)[C@@H](CO)O2)c(=O)[nH]c1=O)c1ccccc1 (stereo partly drawn) [VAL-1-10, 5-[1-(phenyl)ethoxymethyl]-2′-deoxyuridine] | > 200
27 | CC(OCc1cn([C@H]2C[C@H](O)[C@@H](CO)O2)c(=O)[nH]c1=O)c1ccccc1[N+](=O)[O-] (stereo partly drawn) [VAL-1-25, 5-[1-(2-nitrophenyl)ethoxymethyl]-2′-deoxyuridine] | ~170
